Reference: ChEMBL document CHEMBL4118082 (Eur J Med Chem, 2017)
Converted amounts (≈) assume the structure as drawn.

Tests used:
[1] = Cytotoxicity against human MRC5 cells assessed as reduction in cell viability after 24 hrs by neutral red uptake assay; type: cell-based
Mycobacterium avium [2] = assay: Antimycobacterial activity against Mycobacterium avium ssp. avium ATCC 15769 harboring pSMT1 carrying luxAB gene after 6 days by luminescence based serial dilution method; type: functional, Mycobacterium avium subsp. avium; conditions: ATCC 15769, 144 h
Mycobacterium avium [3] = assay: Antimycobacterial activity against Mycobacterium avium ssp. paratuberculosis ATCC 19698 harboring pSMT1 carrying luxAB gene after 6 days by luminescence based serial dilution method; type: functional, Mycobacterium avium subsp. paratuberculosis; conditions: ATCC 19698, 144 h
[4] = test system: Mycolicibacterium smegmatis; assay: Antimycobacterial activity against Mycobacterium smegmatis MC2 155 harboring pSMT1 carrying luxAB gene after 6 days by luminescence based serial dilution method; type: functional; conditions: str. MC2 155, 144 h

Row | Structure (SMILES) | CC50 at 24 h [1] | MIC90 (Mycobacterium avium [2]) | MIC90 (Mycobacterium avium [3]) | MIC90 [4]
1 | O=c1c(-c2ccccc2)c(O)c2ccccc2n1-c1ccccc1 | > 128 µM | 35.4 µM (≈ 11.1 µg/mL) | 23.8 µM (≈ 7.46 µg/mL) | 10.3 µM (≈ 3.23 µg/mL)
2 | COc1cccc2c(O)c(-c3ccccc3)c(O)nc12 | 104 µM | 13 µM (≈ 3.47 µg/mL) | 18 µM (≈ 4.81 µg/mL) | 15.1 µM (≈ 4.04 µg/mL)
3 | Oc1nc2ccccc2c(O)c1-c1ccccc1 | 96.5 µM | 19.8 µM (≈ 4.7 µg/mL) | 21.2 µM (≈ 5.03 µg/mL) | 23.5 µM (≈ 5.58 µg/mL)
4 | CC(=O)Oc1c(-c2ccccc2)c(=O)[nH]c2ccc(F)cc12 | 88.4 µM | 8.9 µM (≈ 2.65 µg/mL) | 7.5 µM (≈ 2.23 µg/mL) | 9.5 µM (≈ 2.82 µg/mL)
5 | Cc1cc2[nH]c(=O)c(-c3ccccc3)c(O)c2cc1C | 61.8 µM | 15.7 µM (≈ 4.17 µg/mL) | 20.3 µM (≈ 5.39 µg/mL) | 17.3 µM (≈ 4.59 µg/mL)
6 | O=c1[nH]c2c(O)cccc2c(O)c1-c1ccccc1 | 84.1 µM | 17 µM (≈ 4.31 µg/mL) | 13.7 µM (≈ 3.47 µg/mL) | 20 µM (≈ 5.07 µg/mL)
7 | O=c1[nH]c2ccc(F)cc2c(O)c1-c1ccccc1 | 67.4 µM | 8.5 µM (≈ 2.17 µg/mL) | 11.5 µM (≈ 2.94 µg/mL) | 8.4 µM (≈ 2.14 µg/mL)
8 | COc1ccc2[nH]c(=O)c(-c3ccccc3)c(O)c2c1 | 75.4 µM | 17.5 µM (≈ 4.68 µg/mL) | 18.6 µM (≈ 4.97 µg/mL) | 15.3 µM (≈ 4.09 µg/mL)
9 | O=c1[nH]c2ccc(O)cc2c(O)c1-c1ccccc1 | > 128 µM | 15.6 µM (≈ 3.95 µg/mL) | 13.2 µM (≈ 3.34 µg/mL) | 16.8 µM (≈ 4.25 µg/mL)
10 | Cc1ccc2[nH]c(=O)c(-c3ccccc3)c(O)c2c1 | > 128 µM | 12.6 µM (≈ 3.17 µg/mL) | 13.2 µM (≈ 3.32 µg/mL) | 19.2 µM (≈ 4.82 µg/mL)
11 | Cc1c(O)c2ccccc2[nH]c1=O | 84.7 µM | 18.4 µM (≈ 3.22 µg/mL) | 14.5 µM (≈ 2.54 µg/mL) | 23.2 µM (≈ 4.06 µg/mL)
12 | O=c1[nH]c2cc(O)ccc2c(O)c1-c1ccccc1 | 92.1 µM | 16.3 µM (≈ 4.13 µg/mL) | 15.7 µM (≈ 3.98 µg/mL) | 18.5 µM (≈ 4.69 µg/mL)
13 | COc1ccc2c(O)c(-c3ccccc3)c(=O)[nH]c2c1 | 59 µM | 13.8 µM (≈ 3.69 µg/mL) | 16.5 µM (≈ 4.41 µg/mL) | 19.5 µM (≈ 5.21 µg/mL)
14 | NNC(=O)c1ccncc1 [ISONIAZID] |  | < 0.1 µM | < 0.1 µM | < 0.1 µM
